From ChEMBL document CHEMBL1138300, “Tris-azaaromatic quaternary ammonium salts: Novel templates as antagonists at nicotinic receptors mediating nicotine-evoked dopamine release” (Bioorg Med Chem Lett, 2007)

Experiments:
[1] = Antagonist activity at nAChR in rat striatal slices assessed as inhibition of nicotine-evoked [3H]dopamine release at 100 uM; assay type: functional; conditions: for inhibition at 100 µM: Rattus norvegicus
[2] = molecular target: Neuronal acetylcholine receptor subunit alpha-7 (Rattus norvegicus) (UniProt Q05941); assay: Displacement of [3H]MLA from alpha-7 nAChR in rat brain membrane at 100 uM; assay type: cell membranes
Chain of Neuronal acetylcholine receptor subunit alpha-7 (Rattus norvegicus) (Q05941 whole entry): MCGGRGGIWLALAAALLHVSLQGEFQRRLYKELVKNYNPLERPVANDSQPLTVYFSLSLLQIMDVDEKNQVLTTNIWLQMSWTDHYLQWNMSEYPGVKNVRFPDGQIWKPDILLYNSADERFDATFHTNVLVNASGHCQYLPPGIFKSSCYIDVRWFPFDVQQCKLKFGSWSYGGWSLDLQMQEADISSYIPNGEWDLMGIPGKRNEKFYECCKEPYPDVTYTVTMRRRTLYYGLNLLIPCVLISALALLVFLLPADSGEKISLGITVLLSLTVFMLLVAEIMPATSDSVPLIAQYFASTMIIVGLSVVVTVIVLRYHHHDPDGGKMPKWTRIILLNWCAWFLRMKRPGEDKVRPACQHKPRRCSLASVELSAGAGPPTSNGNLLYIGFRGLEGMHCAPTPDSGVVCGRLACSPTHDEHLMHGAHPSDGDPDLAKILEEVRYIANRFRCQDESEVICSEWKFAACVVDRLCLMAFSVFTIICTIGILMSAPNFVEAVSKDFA

[3] = molecular target: Neuronal acetylcholine receptor; alpha4/beta2 (Rattus norvegicus) (UniProt P09483+P12390); assay: Displacement of [3H]NIC from alpha-4-beta-2 nAChR in rat brain membrane at 100 uM; assay type: cell membranes
[4] = Antagonist activity at nAChR in rat striatal slices assessed as inhibition of nicotine-evoked [3H]dopamine release; assay type: functional

## Cc1cc[n+](CCCC#Cc2cc(C#CCCC[n+]3ccc(C)cc3)cc(C#CCCC[n+]3ccc(C)cc3)c2)cc1
[1]
  inhibition at 100 µM: 32%
[2]
  inhibition: 0%
[3]
  inhibition: 21%

## CN1CCC[C@H]1c1ccc[n+](CCCCCc2cc(CCCCC[n+]3cccc([C@@H]4CCCN4C)c3)cc(CCCCC[n+]3cccc([C@@H]4CCCN4C)c3)c2)c1
[1]
  inhibition at 100 µM: 26%
[2]
  inhibition: 7.9%
[3]
  inhibition: 81%

## CCCCc1ccc[n+](CCCCCc2cc(CCCCC[n+]3cccc(CCCC)c3)cc(CCCCC[n+]3cccc(CCCC)c3)c2)c1
[1]
  inhibition at 100 µM: 68%
[2]
  inhibition: 4.4%
[3]
  inhibition: 6.2%

## Cc1cc[n+](CCCCCc2cc(CCCCC[n+]3ccc(C)cc3)cc(CCCCC[n+]3ccc(C)cc3)c2)cc1
[1]
  inhibition at 100 µM: 37%
[2]
  inhibition: 0%
[3]
  inhibition: 6%

## CN1CCC[C@H]1c1ccc[n+](CCCC#Cc2cc(C#CCCC[n+]3cccc([C@@H]4CCCN4C)c3)cc(C#CCCC[n+]3cccc([C@@H]4CCCN4C)c3)c2)c1.[Br-].[Br-].[Br-]
[1]
  Imax: 50%
  inhibition at 100 µM: 59%
[2]
  inhibition: 4.2%
[3]
  inhibition: 44%

## CCCCc1ccc[n+](CCCC#Cc2cc(C#CCCC[n+]3cccc(CCCC)c3)cc(C#CCCC[n+]3cccc(CCCC)c3)c2)c1
[1]
  inhibition at 100 µM: 28%
[2]
  inhibition: 30%
[3]
  inhibition: 6.8%

## c1ccc2c[n+](CCCCCc3cc(CCCCC[n+]4ccc5ccccc5c4)cc(CCCCC[n+]4ccc5ccccc5c4)c3)ccc2c1
[1]
  inhibition at 100 µM: 28%
[2]
  inhibition: 2.5%
[3]
  inhibition: 8.4%

## Cc1cccc[n+]1CCCC#Cc1cc(C#CCCC[n+]2ccccc2C)cc(C#CCCC[n+]2ccccc2C)c1.[Br-].[Br-].[Br-]
[4]
  IC50: 4 nM
[1]
  Imax: 50%
  inhibition at 100 µM: 51%
[2]
  inhibition: 0%
[3]
  inhibition: 4.5%

## C(#Cc1cc(C#CCCC[n+]2ccc3ccccc3c2)cc(C#CCCC[n+]2ccc3ccccc3c2)c1)CCC[n+]1ccc2ccccc2c1
[1]
  inhibition at 100 µM: 44%
[2]
  inhibition: 4.5%
[3]
  inhibition: 9.2%

## Cc1cccc[n+]1CCCCCc1cc(CCCCC[n+]2ccccc2C)cc(CCCCC[n+]2ccccc2C)c1
[1]
  inhibition at 100 µM: 27%
[2]
  inhibition: 0%
[3]
  inhibition: 8.6%

## CCCCCCCCCCCC[n+]1cccc(C)c1.[I-]
[4]
  IC50: 30 nM
[1]
  Imax: 62%

## C(#Cc1cc(C#CCCC[n+]2cccc(-c3ccccc3)c2)cc(C#CCCC[n+]2cccc(-c3ccccc3)c2)c1)CCC[n+]1cccc(-c2ccccc2)c1
[1]
  inhibition at 100 µM: 29%
[2]
  inhibition: 39%
[3]
  inhibition: 15%

## Cc1ccc[n+](CCCCCCCCCCCC[n+]2cccc(C)c2)c1.[Br-].[Br-]
[4]
  IC50: 2 nM
[1]
  Imax: 68%

## c1ccc2c(c1)ccc[n+]2CCCCCc1cc(CCCCC[n+]2cccc3ccccc32)cc(CCCCC[n+]2cccc3ccccc32)c1
[1]
  inhibition at 100 µM: 8%
[2]
  inhibition: 6.8%
[3]
  inhibition: 5.7%

## Cc1ccc[n+](CCCC#Cc2cc(C#CCCC[n+]3cccc(C)c3)cc(C#CCCC[n+]3cccc(C)c3)c2)c1.[Br-].[Br-].[Br-]
[4]
  IC50: 0.2 nM
[1]
  Imax: 67%
  inhibition at 100 µM: 40%
[2]
  inhibition: 0%
[3]
  inhibition: 10%

## Cc1cc(C)c[n+](CCCCCc2cc(CCCCC[n+]3cc(C)cc(C)c3)cc(CCCCC[n+]3cc(C)cc(C)c3)c2)c1
[1]
  inhibition at 100 µM: 39%
[2]
  inhibition: 6.5%
[3]
  inhibition: 11%

## C(#Cc1cc(C#CCCC[n+]2cccc3ccccc32)cc(C#CCCC[n+]2cccc3ccccc32)c1)CCC[n+]1cccc2ccccc21
[1]
  inhibition at 100 µM: 29%
[2]
  inhibition: 21%
[3]
  inhibition: 7%

## Cc1cc(C)c[n+](CCCC#Cc2cc(C#CCCC[n+]3cc(C)cc(C)c3)cc(C#CCCC[n+]3cc(C)cc(C)c3)c2)c1
[1]
  inhibition at 100 µM: 27%
[2]
  inhibition: 0%
[3]
  inhibition: 8.9%

## c1ccc(-c2ccc[n+](CCCCCc3cc(CCCCC[n+]4cccc(-c5ccccc5)c4)cc(CCCCC[n+]4cccc(-c5ccccc5)c4)c3)c2)cc1
[1]
  inhibition at 100 µM: 6%
[2]
  inhibition: 19%
[3]
  inhibition: 14%

## Cc1cc[n+](CCCCCc2cc(CCCCC[n+]3ccc(C)c(C)c3)cc(CCCCC[n+]3ccc(C)c(C)c3)c2)cc1C
[1]
  inhibition at 100 µM: 50%
[2]
  inhibition: 0.2%
[3]
  inhibition: 9.3%

## Cc1cc[n+](CCCC#Cc2cc(C#CCCC[n+]3ccc(C)c(C)c3)cc(C#CCCC[n+]3ccc(C)c(C)c3)c2)cc1C
[1]
  inhibition at 100 µM: 18%
[2]
  inhibition: 1.8%
[3]
  inhibition: 4%

## Cc1ccc[n+](CCCCCc2cc(CCCCC[n+]3cccc(C)c3)cc(CCCCC[n+]3cccc(C)c3)c2)c1.[Br-].[Br-].[Br-]
[4]
  IC50: 2 nM
[1]
  Imax: 50%
  inhibition at 100 µM: 58%
[2]
  inhibition: 1.2%
[3]
  inhibition: 14%
